In brackets after ≈: the same amount, converted by molar mass. Where two headings read alike, the source gives them in different places.
Columns and labels:
[1] = test system: oral pathogenic microorganisms; details: cited from earlier work; for antimicrobial activity (in words): among long-chain fatty acids / against various oral microorganisms
Candida Species [2] = assay: MIC against Candida Species; type: cell-based; details: printed conversion of 0.45 μmoles/ml
C. albicans = details: cited from earlier work
Candida Species [3] = details: cited from earlier work

CCCCCCCCCCCCCCCC(=O)O [palmitic acid]
antimicrobial activity (in words) [1]: greatest antimicrobial activity

CCCCC/C=C\C/C=C\C/C=C\C/C=C\CCCC(=O)O [arachidonic acid]
antimicrobial activity (in words) [1]: greatest antimicrobial activity

CCCCCC/C=C\CCCCCCCC(=O)O [palmitoleic acid]
antimicrobial activity (in words) [1]: greatest antimicrobial activity

CCCCC/C=C\C/C=C\CCCCCCCC(=O)O [Linoleic acid]
MIC (Candida Species [2]): 0.13 µg/mL (≈ 0.464 µM) | antimicrobial activity (in words) [1]: greatest antimicrobial activity | bactericidal at a concentration of ([1]; linoleic acid): 25 µg/mL | activity against C. albicans (C. albicans): < 40% | MIC (Candida Species [3]): 450 µM (≈ 126 µg/mL)

CCCCC/C=C\C/C=C\C/C=C\CCCCC(=O)O [GLA, gamma linoleic acid]
antimicrobial activity (in words) [1]: antimicrobial activities | antimicrobial activity (in words) ([1]; listed as 7-linoleic acid): greatest antimicrobial activity | antimicrobial activity (in words) ([1]; listed as gamma linoleic acid): significant anti-microbial activity | bactericidal at a concentration of ([1]; n-6 fatty acids GLA): 25 µg/mL
